Data: patent publication US10494379B2, “6-oxa-3,9,15-triaza-bicyclo[9.3.1]pentadeca-1(14),11(15),12-triene derivatives based compounds and their application as ligands of essential metal ion based MRI and 52MN based PET contrast agents” (DEBRECENI EGYETEM, priority 2015, dated 2019)

How the values were obtained:
[1] = cited from earlier work
[2] = literature values, 'under the same conditions'; cited from earlier work
[3] = Equilibrium study: stability constants of Mn(II) complexes and calculated pMn; type: physicochemical; conditions: 25° C., 0.15M NaCl; for pMn: calculated from equilibrium constants at pH = 7.4 and cMn = cL = 10^−5 M
Experimental: (§1) During the physico-chemical studies of tOPC2A, tOPC2M^Pyp and tOPC2M^Pro compounds prepared according to Example 1, 2, and 5, their protonation constants, as well as equilibrium behaviour and kinetic inertness of their Mn(II) complexes was studied in detail, and the characteristic relaxivity values of the complexes were determined in the presence and absence of HSA (Human Serum Albumin), at 25 and 37° C. and physiological pH. All studies were performed in the presence of 0.15 M NaCl, the same concentration as that of the electrolyte under physiological conditions.
(§2) The results of equilibrium study are summarized in Table 1, in addition to the protonation constants, total basicity of ligands and stability constants of their Mn(II) complexes, the pMn value calculated for complexes are also represented in the table.
Based on the pMn values presented in Table 1 (calculated using the equilibrium constants at pH=7.4 and cMn=cL=10^−5 M), it can be concluded that the studied Mn(II) complexes are formed in 100% at physiological pH, which is an essential aspect of the practical use.

[4] = Equilibrium study: protonation constants and total basicity of the ligands; type: physicochemical; conditions: 25° C., 0.15M NaCl
Experimental: as §1, §2

Row | Compound | Gd(III) release at 37° C. relative to value calculated from experiments at 25° C. ([1]; 37° C. vs 25° C.) [fold] | Gd(III) ion released during in vivo dissociation ([1]; 37° C.) [%] | r1 (relaxivity) [2] [mM⁻¹ s⁻¹] | logKMnL (stability constant of Mn(II) complex) [3] | pMn [3] | logK1 (protonation constant) [4] | logK2 (protonation constant) [4] | logK3 (protonation constant) [4] | ΣlogKi^H (total basicity) [4] | logK4 (protonation constant) [4]
1 | CNC[C@H](O)[C@@H](O)[C@H](O)[C@H](O)CO.CNC[C@H](O)[C@@H](O)[C@H](O)[C@H](O)CO.O=C([O-])CN(CCN(CC(=O)[O-])CC(=O)O)CCN(CC(=O)[O-])CC(=O)O.[Gd+3] [MAGNEVIST] | 4.4 | 2.2 | 4.02 | – | – | – | – | – | – | –
2 | O=C(O)CN1CCOCCN(CC(=O)O)Cc2cccc(n2)C1 [tOPC2A, 4-oxo-1,7-diaza-2,6-pyridinophane-diacetate] | – | – | – | 13.03(1) | 8.59 | 7.73(2) | 7.66(1) | 2.13(1) | 17.52 | –
3 | CNC[C@H](O)[C@@H](O)[C@H](O)[C@H](O)CO.O=C([O-])CN1CCN(CC(=O)[O-])CCN(CC(=O)O)CCN(CC(=O)[O-])CC1.[Gd+3] [DOTAREM] | – | – | 3.83 | – | – | – | – | – | – | –
4 | O=C(O)C1CCCN1C(=O)CN1CCOCCN(CC(=O)N2CCCC2C(=O)O)Cc2cccc(n2)C1 (stereo not shown) [tOPC2AM^Pro] | – | – | – | 10.03(1) | 7.37 | 7.37(3) | 5.14(4) | 3.26(4) | 18.17 | 2.40(4)
5 | O=C(CN1CCOCCN(CC(=O)N2CCCCC2)Cc2cccc(n2)C1)N1CCCCC1 [tOPC2AM^Pyp, 3,9-bis[2-oxo-2-(piperidin-1-yl)-ethyl]-6-oxa-3,9,15-triaza-bicyclo[9.3.1]pentadeca-1(14),11(15),12-triene] | – | – | – | 10.84(4) | 7.60 | 7.91(2) | 5.51(3) | – | 13.42 | –
